Reference: US20210322509A1, “Methods for Reducing Perinatal Morbidity and / or Mortality” (CHU SAINTE-JUSTINE, priority 2016, published 2021)
Marks after values point to notes of the source that are not given here. Non-standard residues stand in square brackets, D forms with d. Residues, ends and D or L forms follow the SMILES beside them. ξ: configuration not given here. dThr(3ξ) = CC(O)[C@@H](N)C(=O)O

Test system: progeny of C57Bl/6 dams given LPS and/or compound 2
Test: Offspring growth trajectory and body morphometry at 20 weeks after exposure in utero
Type: in vivo, C57Bl/6 mice
Details: for Adrenals L / Adrenals R / Biceps / Brain / Combined Muscle / Gastrocnemius / Heart / Kidneys L / Kidneys R / Lean body weight / Liver / Lungs / Muscle:fat ratio / Ovary L / Ovary R / Parametrial Fat / Peri-renal Fat / Quadriceps / Retroperitoneal Fat / Spleen / Thymus / Total Central Fat / Triceps / Uterus / Epididymal Fat / Epididymis (L + R) / Seminal Vesicle / Testes L / Testes R: mean ± SEM
Method: FIGS. 12A and 12B show the effect of exposure to compound 2 in utero on growth trajectory in offspring. Pregnant females were given either LPS or PBS control i.p. on gd 16.5, then compound 2 or PBS vehicle i.p. at 12 h intervals on gd 16.5, 17.0, 17.5 and 18.0. Growth trajectories of male (FIG. 12A) and female (FIG. 12B) progeny of mothers receiving LPS and/or compound 2 are shown as estimated marginal means±SEM, of n=20 male and n=20 female offspring in each group; *P<0.05). Data was analyzed by a Mixed Model Linear Repeated Measures ANOVA and post-hoc Sidak test.
Animal and treatments. To analyze effects of compound 2 on offspring development into adulthood, pups delivered in the experiment described in Example 5 were weighed at 21 days, when pups were weaned and housed in groups of 1-4 siblings according to sex. All progeny were weighed again at 4 weeks and then every 2 weeks until 20 weeks of age. At 20 weeks, progeny were killed by cervical dislocation, weighed and autopsied for full body composition analysis. The following tissues were excised and weighed individually; brain, heart, lungs (left and right), kidneys (left and right), liver, adrenal glands (left and right), thymus, spleen, testes (males, left and right), seminal vesicle (males), epididymis (males), ovaries (females, left and right), uterus (females), quadriceps (left and right), triceps (left and right), biceps (left and right), gastrocnemius muscle (left and right), retroperitoneal fat, peri-renal fat, epididymal fat (males, left and right) and parametrial fat (females). Weights of bilateral tissues and organs were combined for each mouse. Total muscle weight was calculated by summing the weights of quadriceps, triceps, and biceps and gastrocnemius muscles. Total fat weight was calculated by summing the weights of retroperitoneal fat, peri-renal fat and epididymal fat (for males) or parametrial fat (for females), and the muscle/fat ratio was determined. Total fat weight was subtracted from total body weight to calculate total lean weight.

[1] = 20 week old adult female progeny, LPS + compound 2 in utero
[2] = 20 week old adult female progeny, PBS + compound 2 in utero
[3] = 20 week old adult male progeny, LPS + compound 2 in utero
[4] = 20 week old adult male progeny, PBS + compound 2 in utero

CC(C)C[C@@H](NC(=O)[C@@H](CCC(=O)O)NC(=O)[C@H](NC(=O)[C@H](NC(=O)[C@@H](Cc1ccc(O)cc1)NC(=O)[C@H](N)CCCNC(=N)N)C(C)O)C(C)C)C(=O)N[C@H](C)C(=O)O (stereo partly drawn) [compound 2] (H-[dR][dY][dThr(3ξ)][dV][dE][dL][dA]-OH)
Adrenals L [1]: 4 ± 0 mg | Adrenals R [1]: 4 ± 0 mg | Biceps [1]: 48 ± 3 mg | Brain [1]: 408 ± 9 mg | Combined Muscle [1]: 673 ± 25 mg | Gastrocnemius [1]: 207 ± 8 mg | Heart [1]: 105 ± 4 mg | Kidneys L [1]: 120 ± 5 mg | Kidneys R [1]: 127 ± 6 mg | Lean body weight [1]: 19.44 g | Liver [1]: 955 ± 38 mg | Lungs [1]: 165 ± 10 mg | Muscle:fat ratio [1]: 1.23 ± 0.06 | Ovary L [1]: 13 ± 2 mg | Ovary R [1]: 13 ± 1 mg | Parametrial Fat [1]: 180 ± 20 mg | Peri-renal Fat [1]: 66 ± 7 mg | Quadriceps [1]: 254 ± 13 mg | Retroperitoneal Fat [1]: 317 ± 18 mg | Spleen [1]: 86 ± 7 mg | Thymus [1]: 70 ± 5 mg | Total Central Fat [1]: 562 ± 41 mg | Triceps [1]: 165 ± 7 mg | Uterus [1]: 66 ± 8 mg | Adrenals L [2]: 4 ± 0 mg | Adrenals R [2]: 4 ± 0 mg | Biceps [2]: 51 ± 3 mg | Brain [2]: 406 ± 9 mg | Combined Muscle [2]: 690 ± 24 mg | Gastrocnemius [2]: 215 ± 8 mg | Heart [2]: 109 ± 3 mg | Kidneys L [2]: 112 ± 5 mg | Kidneys R [2]: 122 ± 6 mg | Lean body weight [2]: 19.85 g | Liver [2]: 945 ± 37 mg | Lungs [2]: 174 ± 11 mg | Muscle:fat ratio [2]: 1.18 ± 0.06 | Ovary L [2]: 16 ± 2 mg | Ovary R [2]: 16 ± 1 mg | Parametrial Fat [2]: 192 ± 20 mg | Peri-renal Fat [2]: 71 ± 7 mg | Quadriceps [2]: 254 ± 12 mg | Retroperitoneal Fat [2]: 326 ± 18 mg | Spleen [2]: 93 ± 7 mg | Thymus [2]: 64 ± 5 mg | Total Central Fat [2]: 589 ± 40 mg | Triceps [2]: 170 ± 7 mg | Uterus [2]: 63 ± 7 mg | Adrenals L [3]: 4 ± 0 mg | Adrenals R [3]: 3 ± 1 mg | Biceps [3]: 58 ± 3 mg | Brain [3]: 413 ± 5 mg | Combined Muscle [3]: 848 ± 18 mg | Epididymal Fat [3]: 224 ± 16 mg | Epididymis (L + R) [3]: 102 ± 3* mg | Gastrocnemius [3]: 260 ± 7 mg | Heart [3]: 128 ± 3 mg | Kidneys L [3]: 149 ± 5 mg | Kidneys R [3]: 159 ± 5 mg | Lean body weight [3]: 23.04 g | Liver [3]: 1097 ± 40 mg | Lungs [3]: 173 ± 4 mg | Muscle:fat ratio [3]: 1.39 | Peri-renal Fat [3]: 65 ± 6 mg | Quadriceps [3]: 313 ± 8 mg | Retroperitoneal Fat [3]: 334 ± 26 mg | Seminal Vesicle [3]: 218 ± 9 mg | Testes L [3]: 84 ± 3 mg | Testes R [3]: 85 ± 3 mg | Total Central Fat [3]: 625 ± 37 mg | Triceps [3]: 217 ± 6 mg | Adrenals L [4]: 5 ± 0 mg | Adrenals R [4]: 6 ± 2 mg | Biceps [4]: 67 ± 4 mg | Brain [4]: 404 ± 7 mg | Combined Muscle [4]: 840 ± 23 mg | Epididymal Fat [4]: 244 ± 20 mg | Epididymis (L + R) [4]: 112 ± 4 mg | Gastrocnemius [4]: 241 ± 9 mg | Heart [4]: 131 ± 4 mg | Kidneys L [4]: 156 ± 6 mg | Kidneys R [4]: 162 ± 6 mg | Lean body weight [4]: 23.59 g | Liver [4]: 1141 ± 47 mg | Lungs [4]: 181 ± 5 mg | Muscle:fat ratio [4]: 1.28 | Peri-renal Fat [4]: 72 ± 7 mg | Quadriceps [4]: 318 ± 10 mg | Retroperitoneal Fat [4]: 353 ± 30 mg | Seminal Vesicle [4]: 233 ± 12 mg | Testes L [4]: 85 ± 3 mg | Testes R [4]: 87 ± 3 mg | Thymus [4]: 53 ± 4 mg | Total Central Fat [4]: 669 ± 46 mg | Triceps [4]: 215 ± 8 mg | body composition of adult offspring (compound 2 exposure in utero, 20 weeks): no effect | growth trajectory of male and female offspring (compound 2 to dams, with or without concurrent LPS exposure, up to 20 weeks): not affected
